According to US5672715A, “Herbicidal substituted 3-aryl-pyrazoles” (Monsanto Company, priority 1995, dated 1997):

Legend:
Type in all cases: in vivo
Barnyardgrass [1] = test: pre-emergence herbicide test; conditions: Echinochloa crus-galli, pre-emergence, 0.25 lb/A; read-out: % plant inhibition
Method in brief: (§1)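 Greenhouse pan assay in which seeds lie under a treated topsoil cover; carrier was acetone or water. Inhibition (%) was recorded about 14 days post-treatment.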

Bedstraw Catchweed [2] = test: pre-emergence herbicide test; conditions: 0.25 lb/A; for inhibition at 280.212 g/ha: Galium aparine, pre-emergence, read-out: % plant inhibition
Method in brief: as §1

Birdseye Speedwell [3] = test: pre-emergence herbicide test; conditions: pre-emergence, 0.25 lb/A; read-out: % plant inhibition
Method in brief: as §1

Blackgrass [4] = test: pre-emergence herbicide test; conditions: 0.25 lb/A; for inhibition at 280.212 g/ha: Alopecurus myosuroides, pre-emergence, read-out: % plant inhibition
Method in brief: as §1

Cocklebur [5] = test: pre-emergence herbicide test; conditions: 0.25 lb/A; for inhibition at 280.212 g/ha: Xanthium strumarium, pre-emergence, read-out: % plant inhibition
Method in brief: as §1

Common Chickweed [6] = test: pre-emergence herbicide test; conditions: pre-emergence, 0.25 lb/A; read-out: % plant inhibition
Method in brief: as §1

Corn [7] = test: pre-emergence herbicide test; conditions: 0.25 lb/A; for inhibition at 280.212 g/ha: Zea mays, pre-emergence, read-out: % plant inhibition
Method in brief: as §1

Downy Brome [8] = test: pre-emergence herbicide test; conditions: Bromus tectorum, pre-emergence, 0.25 lb/A; read-out: % plant inhibition
Method in brief: as §1

Giant Foxtail [9] = test: pre-emergence herbicide test; conditions: Setaria faberi, pre-emergence, 0.25 lb/A; read-out: % plant inhibition
Method in brief: as §1

Green Foxtail [10] = test: pre-emergence herbicide test; conditions: Setaria viridis, pre-emergence; 0.25 lb/A; read-out: % plant inhibition
Method in brief: as §1

Morning Glory [11] = test: pre-emergence herbicide test; conditions: Ipomoea, pre-emergence, 0.25 lb/A; read-out: % plant inhibition
Method in brief: as §1

Rape [12] = test: pre-emergence herbicide test; conditions: pre-emergence, 0.25 lb/A; read-out: % plant inhibition
Method in brief: as §1

Seedling Johnsongrass [13] = test: pre-emergence herbicide test; conditions: Sorghum halepense, pre-emergence, 0.25 lb/A; read-out: % plant inhibition
Method in brief: as §1

Soybean [14] = test: pre-emergence herbicide test; conditions: 0.25 lb/A; for inhibition at 280.212 g/ha: Glycine max, pre-emergence, read-out: % plant inhibition
Method in brief: as §1

Velvetleaf [15] = test: pre-emergence herbicide test; conditions: Abutilon theophrasti, pre-emergence, 0.25 lb/A; read-out: % plant inhibition
Method in brief: as §1

Wheat [16] = test: pre-emergence herbicide test; conditions: Triticum aestivum, pre-emergence, 0.25 lb/A; read-out: % plant inhibition
Method in brief: as §1

Wild Oats [17] = test: pre-emergence herbicide test; conditions: 0.25 lb/A; for inhibition at 280.212 g/ha: Avena fatua, pre-emergence, read-out: % plant inhibition
Method in brief: as §1

Barnyardgrass [18] = test: post-emergence herbicide test; conditions: Echinochloa crus-galli, post-emergence, 0.25 lb/A; read-out: % plant inhibition
Method in brief: (§2)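 Seeds sown on compacted topsoil, covered, leveled; greenhouse, overhead or subirrigation. Plants 2–3 wk old → atomizer spray, 170.3 kPa, 1870 L/Ha, ~0.4% v/v emulsifier. Readout: % inhibition.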

Bedstraw Catchweed [19] = test: post-emergence herbicide test; conditions: 0.25 lb/A; for inhibition at 280.212 g/ha: Galium aparine, post-emergence, read-out: % plant inhibition
Method in brief: as §2

Birdseye Speedwell [20] = test: post-emergence herbicide test; conditions: post-emergence, 0.25 lb/A; read-out: % plant inhibition
Method in brief: as §2

Blackgrass [21] = test: post-emergence herbicide test; conditions: 0.25 lb/A; for inhibition at 280.212 g/ha: Alopecurus myosuroides, post-emergence, read-out: % plant inhibition
Method in brief: as §2

Cocklebur [22] = test: post-emergence herbicide test; conditions: Xanthium strumarium, post-emergence, 0.25 lb/A; read-out: % plant inhibition
Method in brief: as §2

Common Chickweed [23] = test: post-emergence herbicide test; conditions: post-emergence, 0.25 lb/A; read-out: % plant inhibition
Method in brief: as §2

Corn [24] = test: post-emergence herbicide test; conditions: 0.25 lb/A; for inhibition at 280.212 g/ha: Zea mays, post-emergence, read-out: % plant inhibition
Method in brief: as §2

Downy Brome [25] = test: post-emergence herbicide test; conditions: 0.25 lb/A; for inhibition at 280.212 g/ha: Bromus tectorum, post-emergence, read-out: % plant inhibition
Method in brief: as §2

Giant Foxtail [26] = test: post-emergence herbicide test; conditions: 0.25 lb/A; for inhibition at 280.212 g/ha: Setaria faberi, post-emergence, read-out: % plant inhibition
Method in brief: as §2

Green Foxtail [27] = test: post-emergence herbicide test; conditions: Setaria viridis, post-emergence, 0.25 lb/A; read-out: % plant inhibition
Method in brief: as §2

Morning Glory [28] = test: post-emergence herbicide test; conditions: 0.25 lb/A; for inhibition at 280.212 g/ha: Ipomoea, post-emergence, read-out: % plant inhibition
Method in brief: as §2

Rape [29] = test: post-emergence herbicide test; conditions: post-emergence, 0.25 lb/A; read-out: % plant inhibition
Method in brief: as §2

Seedling Johnsongrass [30] = test: post-emergence herbicide test; conditions: Sorghum halepense, post-emergence, 0.25 lb/A; read-out: % plant inhibition
Method in brief: as §2

Soybean [31] = test: post-emergence herbicide test; conditions: 0.25 lb/A; for inhibition at 280.212 g/ha: Glycine max, post-emergence, read-out: % plant inhibition
Method in brief: as §2

Velvetleaf [32] = test: post-emergence herbicide test; conditions: Abutilon theophrasti, post-emergence, 0.25 lb/A; read-out: % plant inhibition
Method in brief: as §2

Wheat [33] = test: post-emergence herbicide test; conditions: Triticum aestivum, post-emergence, 0.25 lb/A; read-out: % plant inhibition
Method in brief: as §2

Wild Oats [34] = test: post-emergence herbicide test; conditions: 0.25 lb/A; for inhibition at 280.212 g/ha: Avena fatua, post-emergence, read-out: % plant inhibition
Method in brief: as §2

Row | SMILES | inhibition at 280.212 g/ha (Barnyardgrass [1]) [%] | inhibition at 280.212 g/ha (Birdseye Speedwell [3]) [%] | inhibition at 280.212 g/ha (Common Chickweed [6]) [%] | inhibition at 280.212 g/ha (Downy Brome [8]) [%] | inhibition at 280.212 g/ha (Giant Foxtail [9]) [%] | inhibition at 280.212 g/ha (Green Foxtail [10]) [%] | inhibition at 280.212 g/ha (Morning Glory [11]) [%] | inhibition at 280.212 g/ha (Rape [12]) [%] | inhibition at 280.212 g/ha (Seedling Johnsongrass [13]) [%] | inhibition at 280.212 g/ha (Velvetleaf [15]) [%] | inhibition at 280.212 g/ha (Wheat [16]) [%] | inhibition at 280.212 g/ha (Barnyardgrass [18]) [%] | inhibition at 280.212 g/ha (Birdseye Speedwell [20]) [%] | inhibition at 280.212 g/ha (Cocklebur [22]) [%] | inhibition at 280.212 g/ha (Common Chickweed [23]) [%] | inhibition at 280.212 g/ha (Green Foxtail [27]) [%] | inhibition at 280.212 g/ha (Rape [29]) [%] | inhibition at 280.212 g/ha (Seedling Johnsongrass [30]) [%] | inhibition at 280.212 g/ha (Velvetleaf [32]) [%] | inhibition at 280.212 g/ha (Wheat [33]) [%] | further results
1 | Cc1c(-c2cc(C(=O)NC(C)C)c(Cl)cc2F)nn(C)c1C(F)(F)F [Compound 22] | 95 | 100 | 100 | 40 | 98 | 100 | 5 | 90 | 97 | 40 | 6 | 30 | 40 | 65 | 40 | 20 | 10 | 60 | 90 | 0 | inhibition at 280.212 g/ha (Bedstraw Catchweed [2]): 100%; inhibition at 280.212 g/ha (Blackgrass [4]): 85%; inhibition at 280.212 g/ha (Cocklebur [5]): 25%; inhibition at 280.212 g/ha (Corn [7]): 5%; inhibition at 280.212 g/ha (Soybean [14]): 25%; inhibition at 280.212 g/ha (Wild Oats [17]): 85%; inhibition at 280.212 g/ha (Bedstraw Catchweed [19]): 45%; inhibition at 280.212 g/ha (Blackgrass [21]): 5%; inhibition at 280.212 g/ha (Corn [24]): 5%; inhibition at 280.212 g/ha (Downy Brome [25]): 15%; inhibition at 280.212 g/ha (Giant Foxtail [26]): 75%; inhibition at 280.212 g/ha (Morning Glory [28]): 40%; inhibition at 280.212 g/ha (Soybean [31]): 50%; inhibition at 280.212 g/ha (Wild Oats [34]): 10%
2 | CCCCCCCCCCCCOC(=O)c1cc(-c2nn(C)c(C(F)(F)F)c2C)c(F)cc1Cl [Compound 49] | 75 | 55 | 5 | 5 | 10 | 60 | 40 | 0 | 45 | 0 | 0 | 0 | 80 | 50 | 10 | 60 | 20 | 5 | 10 | 10 | inhibition at 280.212 g/ha (Bedstraw Catchweed [2]): 5%; inhibition at 280.212 g/ha (Blackgrass [4]): 5%; inhibition at 280.212 g/ha (Cocklebur [5]): 0%; inhibition at 280.212 g/ha (Corn [7]): 0%; inhibition at 280.212 g/ha (Soybean [14]): 0%; inhibition at 280.212 g/ha (Wild Oats [17]): 5%; inhibition at 280.212 g/ha (Bedstraw Catchweed [19]): 35%; inhibition at 280.212 g/ha (Blackgrass [21]): 20%; inhibition at 280.212 g/ha (Corn [24]): 5%; inhibition at 280.212 g/ha (Downy Brome [25]): 20%; inhibition at 280.212 g/ha (Giant Foxtail [26]): 0%; inhibition at 280.212 g/ha (Morning Glory [28]): 5%; inhibition at 280.212 g/ha (Soybean [31]): 5%; inhibition at 280.212 g/ha (Wild Oats [34]): 20%
3 | Cc1c(-c2cc(C(=O)OC3CCOC3)c(Cl)cc2F)nn(C)c1C(F)(F)F (centres unmarked) [Compound 25] | 95 | 100 | 100 | 10 | 100 | 100 | 55 | 35 | 99 | 80 | 0 | 85 | 95 | 90 | 90 | 65 | 40 | 85 | 100 | 16 | inhibition at 280.212 g/ha (Bedstraw Catchweed [2]): 85%; inhibition at 280.212 g/ha (Blackgrass [4]): 98%; inhibition at 280.212 g/ha (Cocklebur [5]): 35%; inhibition at 280.212 g/ha (Corn [7]): 45%; inhibition at 280.212 g/ha (Soybean [14]): 5%; inhibition at 280.212 g/ha (Wild Oats [17]): 90%; inhibition at 280.212 g/ha (Bedstraw Catchweed [19]): 65%; inhibition at 280.212 g/ha (Blackgrass [21]): 40%; inhibition at 280.212 g/ha (Corn [24]): 20%; inhibition at 280.212 g/ha (Downy Brome [25]): 50%; inhibition at 280.212 g/ha (Giant Foxtail [26]): 75%; inhibition at 280.212 g/ha (Morning Glory [28]): 90%; inhibition at 280.212 g/ha (Soybean [31]): 60%; inhibition at 280.212 g/ha (Wild Oats [34]): 35%
4 | Cc1c(-c2cc(C(=O)OCCC(C)C)c(Cl)cc2F)nn(C)c1C(F)(F)F [Compound 51] | 50 | 90 | 70 | 35 | 90 | 100 | 15 | 5 | 80 | 90 | 0 | 60 | 98 | 85 | 75 | 80 | 20 | 85 | 100 | 12 | % plant inhibition (Bedstraw Catchweed [2]): 55%; % plant inhibition (Blackgrass [4]): 20%; % plant inhibition (Cocklebur [5]): 0%; % plant inhibition (Corn [7]): 8%; % plant inhibition (Soybean [14]): 3%; % plant inhibition (Wild Oats [17]): 15%; % plant inhibition (Bedstraw Catchweed [19]): 40%; % plant inhibition (Blackgrass [21]): 45%; % plant inhibition (Corn [24]): 7%; % plant inhibition (Downy Brome [25]): 45%; % plant inhibition (Giant Foxtail [26]): 85%; % plant inhibition (Morning Glory [28]): 35%; % plant inhibition (Soybean [31]): 65%; % plant inhibition (Wild Oats [34]): 55%
5 | CSCc1cc(-c2nn(C)c(C(F)(F)F)c2C)c(F)cc1Cl [Compound 27] | 60 | 35 | 75 | 5 | 50 | 100 | 75 | 10 | 90 | 90 | 0 | 70 | 100 | 80 | 65 | 75 | 50 | 90 | 98 | 13 | inhibition at 280.212 g/ha (Bedstraw Catchweed [2]): 65%; inhibition at 280.212 g/ha (Blackgrass [4]): 35%; inhibition at 280.212 g/ha (Cocklebur [5]): 20%; inhibition at 280.212 g/ha (Corn [7]): 5%; inhibition at 280.212 g/ha (Soybean [14]): 3%; inhibition at 280.212 g/ha (Wild Oats [17]): 5%; inhibition at 280.212 g/ha (Bedstraw Catchweed [19]): 90%; inhibition at 280.212 g/ha (Blackgrass [21]): 30%; inhibition at 280.212 g/ha (Corn [24]): 65%; inhibition at 280.212 g/ha (Downy Brome [25]): 40%; inhibition at 280.212 g/ha (Giant Foxtail [26]): 35%; inhibition at 280.212 g/ha (Morning Glory [28]): 95%; inhibition at 280.212 g/ha (Soybean [31]): 80%; inhibition at 280.212 g/ha (Wild Oats [34]): 25%
